From patent US10328060B2, “Certain protein kinase inhibitors” (Shanghai Fochon Pharmaceutical Co., Ltd., priority 2014, dated 2019)

Tests used:
[1] = system: SU-DHL-6 cell; assay: SU-DHL-6 cell proliferation assay (MTS); assay type: cell-based; conditions: SU-DHL-6 cells, 48 h
Protocol: To investigate whether a compound is able to inhibit the activity of PI3K in cells, a mechanism-based assay using SU-DHL-6 cell (ATCC number: CRL 2959) was developed. In this assay, inhibition of PI3K-6 was detected by the inhibition of SUDHL-6 cells proliferation. SU-DHL-6 cells were cultured in culture flasks to 40-80% confluence in RPMI-1640 plus 10% fetal bovine serum. Cells were collected and plated onto 96-well-plates at 30000/well. Plates were incubated overnight at 37° C., with 5% CO2 to adhere. Compounds were added to the plates. Final compound concentrations were […], 123.5, 41.2, 13.7, 4.6 and 1.5 nM. Place plates at 37° C., with 5% CO2 for 48 h. After removing the medium, 20 μl MTS/100 μl medium mixture solution were added to each well and incubate the plates for exactly 2 hours. Stop the reaction by adding 25 μl 10% SDS per well. Measure absorbance at 490 nm and 650 nm (reference wavelength). IC50 was calculated using GraphPad Prism 5.0.

[2] = system: WSU-NHL; assay: WSU-NHL cell viability assay (CellTiter-Glo); assay type: cell-based; conditions: WSU-NHL cells, 48 h
Protocol: The cancer cell line WSU-NHL (DSMZ number: ACC 58) was maintained in RPMI-1640 medium with 10% FBS, at 37° C. in an atmosphere of 5% CO2. The tumor cells were routinely sub-cultured twice weekly by trypsin-EDTA treatment. The cells growing in an exponential growth phase were harvested, counted, and planted in 96-well plated by 5000 cells/well. After 24 hours' culture, the series diluted test articles were added into wells, then return the assay plate into the incubator and continue culture for 48 h. At the ending point of incubation, the assay plates were detected by Promega CellTiter-Glo Luminescent Cell Viability Assay Kit (Promege 7572), and the luminescence record of each well was read by the 2104 EnVision plate reader. The data were interpreted by GraphPad Prism5 software.

SMILES	IC50 ([1]; Homo sapiens) [nM]	IC50 ([2]; Homo sapiens) [nM]	further results
Cc1csc2cc(C(C)Nc3ncnc4[nH]cnc34)c(-c3ccccc3)c(=O)n12 (centres unmarked) [Example 1, 7-(1-(9H-purin-6-ylamino)ethyl)-3-methyl-6-phenyl-5H-thiazolo[3,2-a]pyridin-5-one]	36		
CCC(Nc1ncnc2[nH]cnc12)c1cc2scc(C)n2c(=O)c1-c1ccccc1 (centres unmarked) [Example 2, 7-(1-(9H-purin-6-ylamino)propyl)-3-methyl-6-phenyl-5H-thiazolo[3,2-a]pyridin-5-one]	60		
CC(Nc1ncnc2[nH]cnc12)c1cc2ccccn2c(=O)c1-c1ccccc1 (centres unmarked) [Example 3, 2-(1-(9H-purin-6-ylamino)ethyl)-3-phenyl-4H-quinolizin-4-one]	713		
Cc1csc2cc(C(C)Nc3ncnc4[nH]cnc34)c(-c3ccc(F)cc3)c(=O)n12 (centres unmarked) [Example 5, 7-(1-((9H-purin-6-yl)amino)ethyl)-6-(4-fluorophenyl)-3-methyl-5H-thiazolo[3,2-a]pyridin-5-one]	72		
CCC(Nc1ncnc2[nH]cnc12)c1cc2scc(C)n2c(=O)c1-c1ccc(F)cc1 (centres unmarked) [Example 6, 7-(1-((9H-purin-6-yl)amino)propyl)-6-(4-fluorophenyl)-3-methyl-5H-thiazolo[3,2-a]pyridin-5-one]	60		
Cc1csc2cc(C(C)Nc3ncnc4[nH]cnc34)c(-c3ccccc3F)c(=O)n12 (centres unmarked) [Example 7, 7-(1-((9H-purin-6-yl)amino)ethyl)-6-(2-fluorophenyl)-3-methyl-5H-thiazolo[3,2-a]pyridin-5-one]	13		
Cc1csc2cc(C(C)Nc3ncnc4[nH]cnc34)c(-c3cccc(F)c3)c(=O)n12 (centres unmarked) [Example 8, 7-(1-((9H-purin-6-yl)amino)ethyl)-6-(3-fluorophenyl)-3-methyl-5H-thiazolo[3,2-a]pyridin-5-one]	7.2		
CCc1csc2cc(C(C)Nc3ncnc4[nH]cnc34)c(-c3ccccc3)c(=O)n12 (centres unmarked) [Example 9, 7-(1((9H-purin-6-yl)amino)ethyl)-3-ethyl-6-phenyl-5H-thiazolo[3,2-a]-pyridin-5-one]	103		
CCC(Nc1ncnc2[nH]cnc12)c1cc2scc(C)n2c(=O)c1-c1ccccc1F (stereo not drawn) [Example 10, 7-(l-((9H-purin-6-yl)amino)propyl)-6-(2-fluorophenyl)-3-methyl-5H-thiazolo[3,2-a]pyridin-5-one]	28		
CCC(Nc1ncnc2[nH]cnc12)c1cc2scc(C)n2c(=O)c1-c1cccc(F)c1 (centres unmarked) [Example 11, 7-(1((9H-purin-6-yl)amino)propyl)-6-(3-fluorophenyl)-3-methyl-5H-thiazolo[3,2-a]pyridin-5-one]	12		
CC(Nc1ncnc2[nH]cnc12)c1cc2scc(Cl)n2c(=O)c1-c1cccc(F)c1 (centres unmarked) [Example 12, 7-(1-((9H-purin-6-yl)amino)ethyl)-3-chloro-6-(3-fluorophenyl)-5H-thiazolo[3,2-a]pyridin-5-one]	2.7	24	
CCC(Nc1ncnc2[nH]cnc12)c1cc2scc(Cl)n2c(=O)c1-c1cccc(F)c1 (centres unmarked) [Example 13, 7-(1-((9H-purin-6-yl)amino)propyl)-3-chloro-6-(3-fluorophenyl)-5H-thiazolo[3,2-a]pyridin-5-one]	7.5	36	
CC(Nc1ncnc2[nH]cnc12)c1cc2scc(C(F)(F)F)n2c(=O)c1-c1ccccc1 (centres unmarked) [Example 18, 7-(1-((9H-purin-6-yl)amino)ethyl)-6-phenyl-3-(trifluoromethyl)-5H-thiazol-[3,2-a]pyridin-5-one]			IC50 [1]: 23 nM; IC50 [2]: 95 nM
Cc1nc(N)nc(NC(C)c2cc3scc(C)n3c(=O)c2-c2ccccc2)c1C#N (centres unmarked) [Example 26, 2-amino-4-methyl-6-((1-(3-methyl-5-oxo-6-phenyl-5H-thiazolo[3,2-a]pyridin-7-yl)ethyl)amino)pyrimidine-5-carbonitrile]		< 9	
Cc1nc(N)nc(NC(C)c2cc3scc(Cl)n3c(=O)c2-c2cccc(F)c2)c1C#N (centres unmarked) [Example 27, 2-amino-4-((1-(3-chloro-6-(3-fluorophenyl)-5-oxo-5H-thiazolo[3,2-a]pyridin-7-yl)ethyl)amino)-6-methylpyrimidine-5-carbonitrile]		< 9	

Continued, in another order:

IC50 ([1]; Homo sapiens) [nM]	SMILES	IC50 ([2]; Homo sapiens) [nM]	further results
8.5	CC(Nc1ncnc2[nH]cnc12)c1cc2scc(Cl)n2c(=O)c1-c1ccccc1 (centres unmarked) [Example 14, 7-(1-((9H-purin-6-yl)amino)ethyl)-3-chloro-6-phenyl-5H-thiazolo[3,2-a]-pyridin-5-one]	49	
44.8	CCC(Nc1ncnc2[nH]cnc12)c1cc2scc(Cl)n2c(=O)c1-c1ccccc1 (centres unmarked) [Example 15, 7-(1-((9H-purin-6-yl)amino)propyl)-3-chloro-6-phenyl-5H-thiazolol[3,2-a]-pyridin-5-one]		
4.4	CC(Nc1ncnc2[nH]cnc12)c1cc2scc(C(F)(F)F)n2c(=O)c1-c1cccc(F)c1 (centres unmarked) [Example 16, 7-(1-((9H-purin-6-yl)amino)ethyl)-6-(3-fluorophenyl)-3-(trifluoromethyl)-5H-thiazolo[3,2-a]pyridin-5-one]	87	
85	CCC(Nc1ncnc2[nH]cnc12)c1cc2scc(C(F)(F)F)n2c(=O)c1-c1cccc(F)c1 (centres unmarked) [Example 17, 7-(1-((9H-purin-6-yl)amino)propyl)-6-(3-fluorophenyl)-3-(trifluoromethyl)-5H-thiazolo[3,2-a]pyridin-5-one]		
17	CCC(Nc1ncnc2[nH]cnc12)c1cc2scc(C(F)(F)F)n2c(=O)c1-c1ccccc1 (centres unmarked) [Example 19]		
7.8	O=c1c(-c2cccc(F)c2)c(C(Nc2ncnc3[nH]cnc23)C2CC2)cc2scc(Cl)n12 (centres unmarked) [Example 20, 7-(((9H-purin-6-yl)amino)(cyclopropyl)methyl)-3-chloro-6-(3-fluorophenyl)-5H-thiazolo[3,2-a]pyridin-5-one]	39	
27	O=c1c(-c2ccccc2)c(C(Nc2ncnc3[nH]cnc23)C2CC2)cc2scc(Cl)n12 (centres unmarked) [Example 21, 7-(((9H-purin-6-yl)amino)(cyclopropyl)-methyl)-3-chloro-6-phenyl-5H-thiazolo-[3,2-a]pyridin-5-one]	20	
186	O=c1c(-c2cccc(F)c2)c(C(Nc2ncnc3[nH]cnc23)C2CC2)cc2scc(C(F)(F)F)n12 (centres unmarked) [Example 22, 7-(((9H-purin-6-yl)amino)(cyclopropyl)-methyl)-6-(3-fluorophenyl)-3-(trifluoromethyl)-5H-thiazolo[3,2-a]-pyridin-5-one]		
27	O=c1c(-c2ccccc2)c(C(Nc2ncnc3[nH]cnc23)C2CC2)cc2scc(C(F)(F)F)n12 (centres unmarked) [Example 23, 7-(((9H-purin-6-yl)amino)(cyclopropyl)-methyl)-6-phenyl-3-(trifluoromethyl)-5H-thiazolo[3,2-a]pyridin-5-one]		
5.7	Cc1csc2cc(C(Nc3ncnc4[nH]cnc34)C3CC3)c(-c3ccccc3)c(=O)n12 (centres unmarked) [Example 24, 7-(((9H-purin-6-yl)amino)(cyclopropyl)methyl)-3-methyl-6-phenyl-5H-thiazolo[3,2-a]pyridin-5-one]	16	
3.6	Cc1csc2cc(C(Nc3ncnc4[nH]cnc34)C3CC3)c(-c3cccc(F)c3)c(=O)n12 (centres unmarked) [Example 25, 7-(((9H-purin-6-yl)amino)(cyclopropyl)methyl)-6-(3-fluorophenyl)-3-methyl-5H-thiazolo[3,2-a]pyridin-5-one]	47	
